Measurements reported in patent US9243281B2, “Neuroprotective chemicals and methods for identifying and using same” (Board of Regents of The University of Texas System, priority 2013, dated 2016).

Assays:
[1] = tested on: hippocampal neurogenesis (Dentate Gyrus); assay: in vivo neurogenesis assay (BrdU+ cells in dentate gyrus); parameters: species or system mice; details: living mice; vehicle (DMSO) 7.3
Excerpt: The screen was simple in concept. With help from chemists in the Department of Biochemistry at UTSWMC, we selected 1,000 druglike chemicals from the 250,000 compounds in our high throughput screening center. The compounds were selected to preserve representative chemical diversity of the entire library. They were further selected to enhance the representation of chiral molecules, and to avoid untoward chemical properties such as reactive moieties. The 1,000 molecules were randomly pooled into groups of ten, and each pool was administered directly into the left ventricle of two adult mice. Intracranial delivery was facilitated by stereotactic positioning of a canula fed directly by an Alzet mini-pump containing the mixture of ten chemicals. The drug mixture was administered over a week-long period at concentrations anticipated to deliver mid-nanomolar levels of the ten test compounds. Daily injections of the thymidine analog, bromodeoxyuridine (BrdU), were coadministered in order to monitor the formation of new hippocampal nerve cells. Following compound administration, animals were sacrificed such that brain tissue could be recovered, sectioned and stained with antibodies to BrdU. […]

p70 (NAMPT) = target: T1, p70 (NAMPT) (Homo sapiens, UniProt P43490); assay: binding competition for photo-crosslinking of P7C3-S326 to p70 in H2122 cells; details: 0.3 μM P7C3-S326 plus 5 μM competitor, p70 band intensity, P7C3-S326 alone compared with plus competitor, vehicle 1.0
T1 construct: endogenous in cells; host or cells: H2122 lung cancer cells
Method: Cultured cells were co-exposed to P7C3-S326 (0.3 uM) and the individual P7C3 variants (5 uM), exposed to UV light, lysed, clicked to a fluorescent dye and run on SDS gels (FIG. 11).
P7C3-S326 was diluted to 0.3 μM in culture medium to treat H2122 cells. After incubation at 37° C. for 2 hours, H2122 cells were irradiated for 15 minutes under 306 nm ultraviolet light in a Stratalinker 2400 (Stratagene). Cells were then harvested by dissolving in 1% SDS lysis buffer 50 mM HEPES, pH 8.0, 2 mM MgCl2, 10 mM KCl, 1% SDS, 50 units/ml of Benzonase (Sigma), supplemented with Sigmafast protease inhibitor (Sigma).
The reaction was incubated at room temperature with constant agitation at 1,000 rpm on a thermomixer (Eppendorf) for 1 hour. Samples were then mixed with SDS sample loading buffer and loaded on an 8% SDS-PAGE gel, separated, and imaged using a Typhoon imager (filter settings: excitation 533 nm, emission 555 nm, and high sensitivity).
H2122 cells were incubated with the P7C3-S326 (0.3 μM) in the absence or presence of P7C3 analogs for 2 hours following by UV crosslinking. […] The samples were run on SDS-PAGE gels scanned using a Typhoon Imager. The p70 band intensity was analyzed and quantified by Image J, and the relative intensity in each assay was normalized to that of the DMSO control.

T1 sequence (P43490 whole entry): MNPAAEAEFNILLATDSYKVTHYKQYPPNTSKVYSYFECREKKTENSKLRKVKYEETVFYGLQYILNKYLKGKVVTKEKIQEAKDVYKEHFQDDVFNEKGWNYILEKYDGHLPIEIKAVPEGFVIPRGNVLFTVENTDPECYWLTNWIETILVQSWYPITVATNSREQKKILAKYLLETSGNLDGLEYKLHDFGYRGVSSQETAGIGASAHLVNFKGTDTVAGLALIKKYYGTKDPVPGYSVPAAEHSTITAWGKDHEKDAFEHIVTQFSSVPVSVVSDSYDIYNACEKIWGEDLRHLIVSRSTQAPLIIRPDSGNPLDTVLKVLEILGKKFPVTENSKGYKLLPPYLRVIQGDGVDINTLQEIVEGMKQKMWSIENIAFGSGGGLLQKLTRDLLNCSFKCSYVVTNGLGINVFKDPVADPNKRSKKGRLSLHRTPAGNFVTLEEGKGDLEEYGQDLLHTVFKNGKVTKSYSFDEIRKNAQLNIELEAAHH

| SMILES | Neurogenesis # BrdU+ Cells (X10E06)/mm3 Dentate Gyrus [1] | Binding competition (p70 (NAMPT)) |
| --- | --- | --- |
| CCOC(=O)c1ncc2c(n1)c1ccccc1n2S(=O)(=O)c1ccc(C)cc1 [S246] | 14.5 (X10E06)/mm3 | 1.3 |
| OC(Cn1c2ccc(Br)cc2c2cc(Br)ccc21)Cn1c2ccc(Br)cc2c2cc(Br)ccc21 [S34] | 7.6 (X10E06)/mm3 | 1.0 |
| COc1cccc(N(/C=C/Cn2c3ccc(Br)cc3c3cc(Br)ccc32)S(=O)(=O)C(F)(F)F)c1 [S179] | 17.3 (X10E06)/mm3 | 0.9 |
| N=c1ccccn1CC(O)Cn1c2ccc(Br)cc2c2cc(Br)ccc21 (stereo not drawn) [S5] | 12.2 (X10E06)/mm3 | 1.4 |
| OC(CCNc1ccccc1)Cn1c2ccc(Br)cc2c2cc(Br)ccc21 (stereo not drawn) [S32] | 13.8 (X10E06)/mm3 | 2.7 |
| OC(COc1ccccc1)Cn1c2ccc(Br)cc2c2ncccc21 (stereo not drawn) [S194] | 8.1 (X10E06)/mm3 | 5.1 |
| CC(C(N)=O)n1c2ccc(Br)cc2c2cc(Br)ccc21 (stereo not drawn) [S220] | 10.5 (X10E06)/mm3 | 2.9 |
| COc1cccc(SCC(O)Cn2c3ccc(Br)cc3c3cc(Br)ccc32)c1 (stereo not drawn) [S77] | 12.0 (X10E06)/mm3 | 3.3 |
| OC(CNc1ccncc1)Cn1c2ccc(Br)cc2c2cc(Br)ccc21 (stereo not drawn) [S45] | 8.0 (X10E06)/mm3 | 1.2 |
| CCOC(=O)C1=C[C@]2(CC)CCCN3CCc4c(n1c1ccccc41)[C@@H]32 [S199] | 13.3 (X10E06)/mm3 | 1.1 |
| COc1ccc(SCC(F)Cn2c3ccc(Br)cc3c3cc(Br)ccc32)cc1 (stereo not drawn) [S80] | 13.0 (X10E06)/mm3 | 0.9 |
| OC(CNc1cccc2ccccc12)Cn1c2ccc(Cl)cc2c2cc(Cl)ccc21 (stereo not drawn) [S184] | 6.7 (X10E06)/mm3 | 2.5 |
| COc1cccc(NCC(O)Cn2c3ccccc3c3cc(Br)ccc32)c1 (stereo not drawn) [S29] | 9.5 (X10E06)/mm3 | 4.2 |
| O=S(=O)(CC(O)Cn1c2ccc(Br)cc2c2cc(Br)ccc21)c1ccccc1 (stereo not drawn) [S28] | 13.6 (X10E06)/mm3 | 2.8 |
| NCC(O)CN1c2ccccc2CCc2ccccc21 (stereo not drawn) [S140] | 11.7 (X10E06)/mm3 | 1.2 |
| COc1cccc(NCC(C)(O)Cn2c3ccc(Br)cc3c3cc(Br)ccc32)c1 (stereo not drawn) [S54] | 16.7 (X10E06)/mm3 | 3.8 |
| NNCCc1ccccc1 [S116, Nardi, reference compound] | 11.0 (X10E06)/mm3 | 1.2 |
| O=c1ccccn1CC(O)Cn1c2ccc(Br)cc2c2cc(Br)ccc21 (stereo not drawn) [S137] | 12.2 (X10E06)/mm3 | 4.5 |
| [N-]=[N+]=Nc1ccc(NCC(O)Cn2c3ccc(Br)cc3c3cc(Br)ccc32)cc1 (stereo not drawn) [S48] | 14.5 (X10E06)/mm3 | 3.4 |
| CC(C)(C)OC(=O)NCCCCCOc1ccc(S(=O)(=O)CC(O)Cn2c3ccc(Br)cc3c3cc(Br)ccc32)cc1 (stereo not drawn) [S141] | 11.3 (X10E06)/mm3 | 2.7 |
| COc1c(Br)cc(OC)c2c1c1cc(Br)ccc1n2CC(O)CNc1ccccc1 (stereo not drawn) [S160] | 13.1 (X10E06)/mm3 | 4.3 |

| SMILES | Neurogenesis # BrdU+ Cells (X10E06)/mm3 Dentate Gyrus [1] | Binding competition (p70 (NAMPT)) |
| --- | --- | --- |
| N#Cc1cc2c3cc(Br)ccc3n(CC(O)COc3ccccc3)c2cn1 (stereo not drawn) [S192] | 10.5 (X10E06)/mm3 | 4.2 |
| O[C@H](COc1ccccc1)Cn1c2ccc(Br)cc2c2cc(Br)ccc21 [S41] | 15.3 (X10E06)/mm3 | 3.4 |
| CN(C)CCCN1c2ccccc2Sc2ccc(Cl)cc21 [S121, CPZ, reference compound] | 11.1 (X10E06)/mm3 | 2.3 |
| OC(CNc1ncccn1)Cn1c2ccc(Br)cc2c2cc(Br)ccc21 (stereo not drawn) [S8] | 7.8 (X10E06)/mm3 | 4.7 |
| C=C/C=N\C=C\NCC(O)Cn1c2ccc(Br)cc2c2cc(Br)ccc21 (stereo not drawn) [S58] | 7.2 (X10E06)/mm3 | 2.5 |
| NC(=O)c1ccc2[nH]c3ccc(Br)cc3c2c1 [S223] | 7.9 (X10E06)/mm3 | 3.0 |
| CCOC(=O)C1=NCc2c(c3ccccc3n2S(=O)(=O)c2ccc(C)cc2)N1 [S247] | 15.6 (X10E06)/mm3 | 1.6 |
| OCCCc1cn(CC(O)Cn2c3ccc(Br)cc3c3cc(Br)ccc32)nn1 (stereo not drawn) [S23] | 7.4 (X10E06)/mm3 | 2.1 |
| Cc1cc(C)n(CC(O)Cn2c3ccc(Br)cc3c3cc(Br)ccc32)n1 (stereo not drawn) [S25] | 7.0 (X10E06)/mm3 | 1.4 |
| COc1cccc(N(CC(F)Cn2c3ccc(Br)cc3c3cc(Br)ccc32)S(=O)(=O)C(F)(F)F)c1 (stereo not drawn) [S241] | 15.5 (X10E06)/mm3 | 1.3 |
| COc1ccc(S(=O)(=O)CC(O)Cn2c3ccc(Br)cc3c3cc(Br)ccc32)cc1 (stereo not drawn) [S84] | 12.8 (X10E06)/mm3 | 1.2 |
| CN[C@H]1CC[C@@H](c2ccc(Cl)c(Cl)c2)c2ccccc21 [S123, Zoloft, reference compound] | 9.4 (X10E06)/mm3 | 1.5 |
| CN(C)C(CF)CN1c2ccccc2CCc2ccccc21 (stereo not drawn) [S149] | 11.6 (X10E06)/mm3 | 1.2 |
| FC(COc1ccccc1)Cn1c2c(c3cc(Br)ccc31)CNCC2 (stereo not drawn) [S108] | 7.6 (X10E06)/mm3 | 1.0 |
| N#Cc1ccc2[nH]c3ccc(Br)cc3c2c1 [S216] | 13.0 (X10E06)/mm3 | 4.4 |
| O=C(CCCCCC1SCC2NC(=O)NC21)NCCCCCOc1cccc(NCC(O)Cn2c3ccc(Br)cc3c3cc(Br)ccc32)c1 (stereo not drawn) [S219] | 8.4 (X10E06)/mm3 | 3.1 |
| COc1cccc(SCC(F)Cn2c3ccc(Br)cc3c3cc(Br)ccc32)c1 (stereo not drawn) [S79] | 13.7 (X10E06)/mm3 | 1.0 |
| O=S(=O)(CC(O)Cn1c2ccc(Br)cc2c2cc(Br)ccc21)c1cccc(O)c1 (stereo not drawn) [S93] | 11.9 (X10E06)/mm3 | 1.4 |
| O=C(COc1ccc(SCC(O)Cn2c3ccc(Br)cc3c3cc(Br)ccc32)cc1)NCc1ccccc1 (stereo not drawn) [S99] | 7.6 (X10E06)/mm3 | 2.5 |
| CCOC(=O)Cn1c2ccc(Br)cc2c2cc(Br)ccc21 [S164] | 7.6 (X10E06)/mm3 | 1.3 |
| COc1cccc(NCC(O)CN2c3ccc(Br)cc3CCc3cc(Br)ccc32)c1 (stereo not drawn) [S76] | 14.2 (X10E06)/mm3 | 1.1 |
